The values below come from patent publication US5202312A, “Imidazole-containing peptides having immunomodulatory activity” (Tanabe Seiyaku Co., Ltd., priority 1988, dated 1993).

Each structure is given as a SMILES string. Where a SMILES comes first, the peptide text is derived from it.

The subject of assay [1] is picryl chloride-induced delayed type hypersensitivity. The assay is described as follows: Inhibitory effect on picryl chloride-induced delayed type hypersensitivity (ear swelling). The format is in vivo. To be noted: BALB/C female mice, oral, once a day for 7 days, dose 10 mg/kg. How it is done: EXPERIMENT 2 Inhibitory effect on picryl chloride-induced delayed type
BALB/C female mice (10-week-old) were sensitized by spreading one ml of an ethanol solution containing 7 w/v % of picryl chloride to abdominal skin of the mice. In a "test group", a test compound was administered orally to the mice a day for 7 days from the day of sensitization.
7 Days after the sensitization, 10 μl of an olive oil solution containing 1 w/v % of picryl chloride was spread to both side skin of left external ear. 24 Hours later, the mice was sacrificed and the thickness of both ears was immediately measured.
The inhibition (%) of swelling of exterernal ear was calculated according to the following formula: [formula]

A short description of assay [2]: Immunomodulatory effect (general statement, no method).

In the case of `COC(=O)[C@H](Cc1c[nH]cn1)NC(=O)[C@H](Cc1ccccc1)NC(=O)N(Cc1ccccc1)NC(=O)OC(C)(C)C` [Example 13, 3-tert-butoxycarbonyl-2-benzylcarbazoyl-L-phenylalanyl-L-histidine methyl ester], in assay [1], the “Inhibition (%) of swelling of external ear” value stood at 72.6%. With `COC(=O)[C@H](Cc1c[nH]cn1)NC(=O)[C@H](Cc1ccccc1)NC(=O)[C@H](Cc1ccccc1)NC(C)=O` [N-acetyl-L-phenylalanyl-L-phenylalanyl-L-histidine methyl ester] (Ac-Phe-Phe-His-OMe), the immunomodulatory effect result in assay [2] is “scarcely an immunomodulatory effect”.
